Results: patent US6960470B1 (priority 1998, dated 2005)

Tests used:
[1] = system: AMPA (glutamate subtype) receptor; assay: Whole-cell patch-clamp, evoked inward synaptic current at -60 mV (glutamate currents); type: cell-based; conditions: 2 μM NBQX; whole-cell patch-clamped neurons
Procedure: Data were prepared as graphs of the effect of agents on the GABAA receptor-mediated transmission in the mutant and wt cells using whole-cell patch-clamping. The data included the evoked synaptic response ([…]) from whole-cell patch-clamped neurons. […] The evoked synaptic responses (averaged up to 15 each) recorded at holding potentials of 0 mV and −60 mV with the stimulating electrode placed in stratum radiatum at site 1, ˜50μm from the recording electrode at site 2, ˜250 μm from the recording electrode and at site two with the stimulus intensity increased ˜3-fold. Graphs were prepared of examples of averaged (up to 15 each) traces from patch-clamp whole-cell recordings-in wt and Δ9 mutation at […] (glutamate currents) and at 0 mV (GABAA currents). The graphs included peak amplitude of response ratios (measured at holding potentials of −60 mV and 0 mV, respectively) from cells in individual slices (n=9 slices each).

GABAA receptor = type: cell-based

| Compound | block of inward current at holding potential of −60 mV [1] | block of outward current (di-synaptic inhibition) (GABAA receptor) | block of outward current recorded at 0 mV (GABAA receptor) |
| --- | --- | --- | --- |
| NS(=O)(=O)c1cccc2c1c([N+](=O)[O-])cc1nc(O)c(O)nc12 [NBQX] | completely blocked | blocked some of the outward current | – |
| picrotoxin | – | – | completely blocked |
